# Values of other authors as cited in US20200396993A1, “COMPOSITIONS AND METHODS FOR RELEASE OF CYCLOPROPENES” (Hazel Technologies, Inc., priority 2017, published 2020).
# Settings: in water
structure (smiles),measurement,value
"CC1=CC1 [Sample 1-MCP, 1-methylcyclopropene]",solubility,137 µg/mL
